# From US9271448B2, “Method for cultivating sugar cane” (BASF SE, priority 2010, dated 2016)
# Test system: sugar cane seedlings
# Assay: Growth of sugar cane seedlings treated in the greenhouse, then transplanted to the field
# Format: in vivo
# Description: On an area of 0.1 hectares where sugar cane plants were growing with a distance between the rows of approximately 1.5 m, the top part of the 8 months old sugar cane plants was removed by chopping off with a machete in a height of approximately 2-2.5 m. The removed top part was discarded. After 30 days, on the below, remaining stalks, shoots (“1st generation”) had developed from the buds. The top parts (approximately 30 cm) of these shoots were removed by cutting. New shoots (“2nd generation”) developed from the cut shoots of the 1st generation. 30 days after cutting the top part of the 1st generation shoots, the 2nd generation shoots were removed by cutting them off closely to the nodes. On average, every node had produced three 2nd generation shoots. The removed 2nd generation shoots were each placed in pots filled with humid coconut fibers. The pots were placed in a greenhouse, and seedlings were grown from the planted shoots at 25-35° C. and 70-80% humidity. While in the greenhouse, the shoots/seedlings were watered sufficiently. One part of the seedlings was treated once with pyraclostrobin (in form of the commercial product Comet®; EC; 250 g/l) by immersing the entire tray containing the planted shoots for 10 min into a solution containing 4 ml of Comet® concentrate per l; i.e. 1 g pyraclostrobin per l. Another part of the seedlings remained untreated (control). 30 to 45 days after having been placed in the greenhouse, the surviving seedlings were transferred to an acclimatization area and kept for 15 days. Then they were counted and transplanted to a field. In sum 96,000 seedlings had been obtained. This number was sufficient for planting an area of 6.4 hectares with the same distance between the rows and the plants in the rows as in the originating field. […] 20 days after transplanting, the plant height of the treated and untreated plants was determined.
structure (smiles),measurement,setting,value
COC(=O)N(OC)c1ccccc1COc1ccn(-c2ccc(Cl)cc2)n1 [pyraclostrobin],Plant height,"1 g a.i./l, planted shoots immersed once for 10 min, height determined 20 days after transplanting to the field",38.3 cm
same,colour and vigour of the seedlings / young plants,"treated once while in the greenhouse, 1 g pyraclostrobin per l, compared with untreated seedlings","more intense, greener color and were more vigorous"
same,increase in plant height,"versus untreated control, 1 g pyraclostrobin per l, 20 days after transplanting",more than 30%
